Experimental data as given in patent publication US11959909B2, “Basal ganglia-on-chip for screening therapeutic agents for brain and nervous system diseases” (priority 2018, dated 2024).
Entries after “also recorded” stand apart in the source; their conditions may differ.

Test system: dopaminergic neurons
Assay: Drug screening on Parkinson's disease-like basal ganglia-on-a-chip model (6-OHDA induced)
Format: cell-based
Settings: 50 μM L-dopa after Parkinson's disease-like model established with 100 μM 6-OHDA
Description: In order to fabricate a basal ganglia-on-a-chip, SH-SY5Y (ATCC CRL-2266) was used as dopaminergic neurons, and F3-NG1 (provided from professor Hong-Joon Lee at Chung-Ang University) were allowed to differentiate and then used as GABAergic neurons and glutamatergic neurons. Parkinson's disease is caused by the gradual loss of dopaminergic neurons distributed in the substantia nigra. 6-Hydroxydopamine (6-OHDA) causes oxidative stress to induce mitochondrial migration of c-Jun N-terminal kinase (JNK), and the activated JNK after mitochondrial migration causes mitochondrial dysfunction, contributing to apoptosis of dopaminergic neurons, occurring in Parkinson's disease. Based on this, a Parkinson's disease model was developed using 100 μM 6-OHDA.

N[C@@H](Cc1ccc(O)c(O)c1)C(=O)O [L-dopa, L-3,4-dihydroxyphenylalanine]
proliferation of dopaminergic neurons: increase in the proliferation of dopaminergic neurons; also recorded: proliferation of dopaminergic neurons was confirmed
